From US10172815B2, “Targeted treatment of anerobic cancer” (UNIVERSITY HOSPITALS CLEVELAND MEDICAL CENTER, priority 2013, dated 2019) come the findings set out here.

Test [1] relates to N1-S1 hepatoma. The experiment in a line: Additional comparison study, hepatocellular rat model, TAE combined with anti-glycolytic agents (Example 2). In kind it is in vivo, Sprague Dawley rats. The settings on record: over four weeks. The method, then:
To determine if anti-glycolytic agents (AG) combined with transarterial embolization (TAE) improves treatment of an N1-S1 tumor model implanted in Sprague-Dawley rat livers. The animal experiments were approved by the Institutional Animal Care and Use Committee. […] The agents were slowly injected within 2 minutes. […] Tumor volume (V) was calculated by the formula: V=0.5*L*W*H. Relative tumor volume after treatment was calculated as the percentage of pre-treatment tumor volume. Kruskal-Wallis test with Minitab 16 was used to compare the difference of relative tumor volume between 4 groups on each observation time point.

In test [2] the test system is HT29 colon cancer xenografts. The experiment in a line: DCE-MRI with GODP, AATH model, tumor vascularity. In kind it is in vivo, athymic nude mice. To be noted: 3-week time point; 10 mg/kg i.p. daily; entire tumor; mean±SD. The source says: (§1) Dynamic contrast-enhanced (DCE) MRI is a non-invasive imaging technique that is able to quantify the anatomical and physiological progression of tumor angiogenesis in response to a variety of different cancer therapies. In order to allow for the safe use of macromolecular contrast medium, a novel polydisulfide-based agent, poly([(Gd-DOTA)-DETA]-co-DTBP) (GODP) was designed, which initially starts as a macromolecular agent during an DCE-MRI protocol, and is then gradually degraded by endogenous thiols in the reductive environment of the bloodstream to improve renal clearance. In this study, two groups of 3 mice, bearing flank HT29 colon cancer xenografts, were treated daily with either bumetanide or saline for a total of 3 weeks. DCE-MRI was performed before and after the start of treatment on a weekly basis, and the collected was analyzed using the adiabiatic approximation to the tissue homogeneity (AATH) model. IHC and western blot analysis was performed to study the changes in CD31, VEGF, and tissue hypoxia.
The anti-angiogenic effects of bumetanide were investigated in a mouse model bearing subcutaneous HT29 colon adenocarcinoma xenografts. HT29 cells were initially cultured in McCoy's 5A growth media (ATCC), supplemented with 10% FBS, […] of streptomycin, and 100 units/mL of penicillin (Invitrogen). A total of 1×10^6 cells were then inoculated into athymic nude mice in a 250 μL volume of Matrigel (BD Biosciences). Before the start of treatment, tumors were allowed to grow for 10 days, until they were approximately 0.5 cm in diameter. This study comprised of 2 groups of 3 mice, one of which was treated with bumetanide, and the other with a saline control. […] Tumor growth was measured at several time points during the therapy with a caliper. Volumes were calculated using the formula […], where D1 and D2 were two diameters measured along perpendicular axes of the tumor lesion.
Changes in the tumor vascularity were monitored during the treatment by DCE-MRI. […]

Test [3] relates to HT29 colon adenocarcinoma xenografts. The test is described as follows: Tumor growth measured with a caliper. The class given is in vivo, athymic nude mice. The settings on record: any point during the 3-week administration period. The method, then:
The anti-angiogenic effects of bumetanide were investigated in a mouse model bearing subcutaneous HT29 colon adenocarcinoma xenografts. HT29 cells were initially cultured in McCoy's 5A growth media (ATCC), supplemented with 10% FBS, […] of streptomycin, and 100 units/mL of penicillin (Invitrogen). A total of 1×10^6 cells were then inoculated into athymic nude mice in a 250 μL volume of Matrigel (BD Biosciences). Before the start of treatment, tumors were allowed to grow for 10 days, until they were approximately 0.5 cm in diameter. This study comprised of 2 groups of 3 mice, one of which was treated with bumetanide, and the other with a saline control. The drug and saline control were injected intraperitoneally on a daily basis for 3 weeks, with a bumetanide dose of 10 mg/kg. All mice were sacrificed on day 21 of the treatment regimen. Tumor growth was measured at several time points during the therapy with a caliper. Volumes were calculated using the formula […], where D1 and D2 were two diameters measured along perpendicular axes of the tumor lesion.

Test [4] has as its system Ki67. The experiment in a line: IHC stain for Ki67 proliferation marker in tumor tissue. The class given is in vivo, athymic nude mice. To be noted: after 3-week therapy, mean±SD. The method, then:
Once the final DCE-MRI scans were complete at the end of the therapy, the mice were intravenously injected with 60 mg/kg of pimonidazole, an established marker for the detection of tissue hypoxia. After one hour following the pimonidazole staining, the tumors from these mice were resected for further biological analysis. Half of each tumor that was collected was snap-frozen in liquid nitrogen for western blot, while the other half was sliced into thin sections and formalin-fixed/paraffin-imbedded for immunohistochemistry (IHC) staining. For western blot, cell lysates from the frozen tissue were prepared by homogenizing entire tumor tissues in RIPA lysis buffer supplemented with a Halt protease inhibitor cocktail (Thermo Fisher Scientific). […] Image J software was utilized to quantify the relative protein expression of HIF-1α from the blots by calculating the total pixel intensity from each protein band, and then normalizing these signals with its corresponding β-actin stain. […]
Despite the fact that bumetanide inhibited angiogenesis and induced vascular regression, the therapy was not able to slow down the tumor growth rate over the course of the study. […] A Ki67 index was calculated by determining the percentage of nuclei in a given area of the tissue expressed this factor.

The subject of test [5] is CD31. The test is described as follows: IHC stain for CD31 in tumor tissue. In kind it is in vivo, athymic nude mice. The settings on record: after 3-week therapy, tumor periphery and core, vs saline control. The method, then: (§2) Once the final DCE-MRI scans were complete at the end of the therapy, the mice were intravenously injected with 60 mg/kg of pimonidazole, an established marker for the detection of tissue hypoxia. After one hour following the pimonidazole staining, the tumors from these mice were resected for further biological analysis. Half of each tumor that was collected was snap-frozen in liquid nitrogen for western blot, while the other half was sliced into thin sections and formalin-fixed/paraffin-imbedded for immunohistochemistry (IHC) staining. For western blot, cell lysates from the frozen tissue were prepared by homogenizing entire tumor tissues in RIPA lysis buffer supplemented with a Halt protease inhibitor cocktail (Thermo Fisher Scientific). […] The blots were blocked for 1 hr and then stained overnight at 4° C. with primary antibodies for HIF-1α and β-actin, the latter of which serving as the housekeeper control. Image J software was utilized to quantify the relative protein expression of HIF-1α from the blots by calculating the total pixel intensity from each protein band, and then normalizing these signals with its corresponding β-actin stain. Sections of the formalin-fixed tissue were stained with the antibodies for CD31 and the Ki67 nuclear proliferation marker. They were also stained with a primary antibody for the detection of the pimonidazole hypoxia marker. […]

Test [6] concerns HIF-1α. The experiment in a line: Western blot of HIF-1α in tumor tissue. The settings on record: after 3 weeks of therapy, vs saline control. In kind it is in vivo, athymic nude mice. The method, then: as §2
Test [7] relates to VEGF. The experiment in a line: Western blot and IHC of VEGF in tumor tissue. To be noted: after 3 weeks of therapy; western blot; vs saline control. In kind it is in vivo, athymic nude mice.
Text: as §1, with “hypoxia. […] Image J software was utilized to quantify the relative protein expression of HIF-1α from the blots by calculating the total pixel intensity from each protein band, and then normalizing these signals with its corresponding β-actin stain. […]” for “hypoxia.”

Test [8] concerns HT29 colon cancer xenografts. The experiment in a line: Pimonidazole staining of tumor hypoxia. The class given is in vivo, athymic nude mice. The settings on record: after 3-week therapy; vs saline control. The method, then: as §2

Several values for one entry are separate records, joined by “and”; a condition that tells them apart may be missing. Equal entries are not always repeated.

Turning to `O=C(O)/C=C/c1ccc(O)c(O)c1` [caffeic acid], the “relative tumor volume comparing the different treatments (FIG. 25)” value in test [1] is “effective at reducing tumor volume”.
Same read-out and setting: for `COc1cc(/C=C/C(=O)O)ccc1O` [ferulic acid] the value was “effective at reducing tumor volume”.
For the compound `CCCCNc1cc(C(=O)O)cc(S(N)(=O)=O)c1Oc1ccccc1` [bumetanide, 3-butylamino-4-phenoxy-5-sulfamoyl-benzoic acid], in test [2], the “average decrease in Fp (blood flow rate) between pre- and post-treatment levels” value is listed as 71.2±8.01%; the “average reduction in PS (permeability-surface area product) from pre-treatment level” value is on record as 72.2±9.26%; the “average reduction in Vp (fractional plasma volume) from pre-treatment level” value is given as 75.6±8.97%. Besides, in test [3], the “tumor size versus saline control” value is “no significant difference”. In addition, in test [4], the “Ki67 index (percentage of nuclei expressing Ki67)” value is recorded as about 24.7±4.51%. Also, in test [1], the “relative tumor volume comparing the different treatments (FIG. 25)” value is “effective at reducing tumor volume”. The CD31 expression entry in test [5] is listed as “significant decrease”. Further, the “HIF-1α expression greater than in control tumors” value in test [6] is 59.1% and 59.2%. For the same compound, the “VEGF protein levels lower than in control tumors” value in test [7] was 42.9%. In addition, the “tumor hypoxia (pimonidazole staining intensity)” value in test [8] is on record as “increase”.
